Series [1] in a line: Determination of logD (1-octanol / phosphate buffer pH 7.4). To be noted: 1-octanol/phosphate buffer, pH 7.4, pH 7.4, 1-octanol/phosphate buffer; read-out: Log D, pH 7.4. Type of series: physicochemical. In a few lines:
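Each phase analysed by LCMS after 1 h shaking at 800 rpm and centrifugation, room temperature. Phases were mutually saturated 1-octanol and 100 mM phosphate buffer at pH 7.4. LogD derived from the phase concentrations.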

Series [2] concerns the target KRAS G12C (GMPPNP-loaded) and cRAF (Ras-binding domain) interaction (Homo sapiens (Human), UniProt P01116, C118S/C51S/C80L/G12C). Briefly: Inhibition of KRAS G12C and cRAF binding (AlphaScreen). Conditions: KRAS G12C loaded with GMPPNP, cRaf RBD, 2 hours preincubation; read-out: Raf-1 RBD K-Ras IC50. The essentials: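 AlphaScreen readout (680 nm excitation, 570 nm emission) of RBD binding after a 60-90 min bead step at room temperature. This step follows 2 h compound exposure of GMPPNP-preloaded KRAS G12C in Hepes pH 7.4 buffer with MgCl2 and 10 μM GMPPNP.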

A short description of series [3]: Determination of kinetic solubility (pH 7.4). Type of series: physicochemical. Conditions: phosphate buffer, pH 7.4, aqueous buffer, kinetic from dmso stock, 50 mM phosphate buffer pH 7.4, read-out: Ksol, pH 7.4. The essentials: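 Solubility taken from filtrate peak areas on a calibration curve (HPLC-UV, LC-MS/MS). Before filtration and centrifugation, compound was shaken for 2 h at room temperature in pH 7.4 50 mM phosphate buffer.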

Molecules are shown by their SMILES. In brackets after ≈: the same amount, converted by molar mass.

Usually IC50 stands for the concentration at which inhibition is half-maximal.

KRAS G12C (GMPPNP-loaded) and cRAF (Ras-binding domain) interaction, sequence (P01116 other isoform, or with tags, fused parts or gaps G12C/C51S/C80L/C118S): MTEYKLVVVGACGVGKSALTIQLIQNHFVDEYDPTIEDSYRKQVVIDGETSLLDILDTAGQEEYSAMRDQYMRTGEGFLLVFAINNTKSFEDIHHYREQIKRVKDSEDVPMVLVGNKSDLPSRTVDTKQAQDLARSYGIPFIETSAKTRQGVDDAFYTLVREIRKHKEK

As for `Cc1cc(/C=C/C(=O)N2CCN(c3nc(OC[C@@]45CCCN4C[C@H](F)C5)nc4c(F)c(-c5cccc(Cl)c5C(F)(F)F)ncc34)C[C@@H]2CC#N)nc(C)n1` [Compound 297], the logD in series [1] was 3.89. Also, in series [2], the IC50 lay in the range of 10 to 100 nM. For the same compound, in series [3], the solubility kinetic at 2 h amounted to 29.7 µg/mL (≈ 38.6 µM).
With `N#CC[C@H]1CN(c2nc(OC[C@@]34CCCN3C[C@H](F)C4)nc3c(F)c(-c4cccc5cccc(Cl)c45)ncc23)CCN1C(=O)/C=C/CN1CC[C@@H]2COC[C@H]21` [Compound 298], the logD in series [1] came to 2.99. Further, the IC50 in series [2] is < 10 nM. In addition, in series [3], the solubility kinetic at 2 h came to 118 µg/mL (≈ 153 µM).
With `N#CC[C@H]1CN(c2nc(OC[C@@]34CCCN3C[C@H](F)C4)nc3c(F)c(-c4cccc5ccc(F)c(F)c45)ncc23)CCN1C(=O)/C=C/CN1CC[C@@H]2COC[C@H]21` [Compound 299], the logD in series [1] was found to be 2.95. In addition, the IC50 in series [2] was < 10 nM. Besides, the solubility kinetic at 2 h in series [3] was 118 µg/mL (≈ 153 µM).
The corresponding values for `C[C@@H]1CN(C/C=C/C(=O)N2CCN(c3nc(OC[C@@]45CCCN4C[C@H](F)C5)nc4c(F)c(-c5cccc(Cl)c5C5CC5)ncc34)C[C@@H]2CC#N)C[C@H](C)O1` [Compound 300] are 4.05, 10 to 100 nM and 124 µg/mL (≈ 164 µM).
For `C[C@H]1CN(C/C=C/C(=O)N2CCN(c3nc(OC[C@@]45CCCN4C[C@H](F)C5)nc4c(F)c(-c5cccc(Cl)c5C5CC5)ncc34)C[C@@H]2CC#N)C[C@H](C)O1` [Compound 302] the same measures were 4.21, < 10 nM and 118 µg/mL (≈ 155 µM).
In the case of `C[C@@H]1CN(C/C=C/C(=O)N2CCN(c3nc(OC[C@@]45CCCN4C[C@H](F)C5)nc4c(F)c(-c5cccc(Cl)c5C(F)(F)F)ncc34)C[C@@H]2CC#N)C[C@H](C)O1` [Compound 306], in series [1], the logD came out at 3.5. In addition, the concentration for half-maximal inhibition (IC50) in series [2] lay in the range of 10 to 100 nM. Moreover, in series [3], the solubility kinetic at 2 h was 128 µg/mL (≈ 163 µM).
The corresponding values for `C[C@@H]1CN(C/C=C/C(=O)N2CCN(c3nc(OC[C@@]45CCCN4C[C@H](F)C5)nc4c(F)c(-c5cccc(Cl)c5C(F)(F)F)ncc34)C[C@@H]2CC#N)C[C@@H](C)O1` [Compound 307] are 3.68, < 10 nM and 124 µg/mL (≈ 157 µM).
For `C[C@H]1CN(C/C=C/C(=O)N2CCN(c3nc(OC[C@@]45CCCN4C[C@H](F)C5)nc4c(F)c(-c5cccc(Cl)c5C(F)(F)F)ncc34)C[C@@H]2CC#N)C[C@H](C)O1` [Compound 308] the same measures were 3.75, 10 to 100 nM and 80.5 µg/mL (≈ 102 µM).
For `CO[C@H]1CCN(C/C=C/C(=O)N2CCN(c3nc(OC[C@@]45CCCN4C[C@H](F)C5)nc4c(F)c(-c5cccc(Cl)c5C(F)(F)F)ncc34)C[C@@H]2CC#N)C1` [Compound 309] the same measures were 2.79, 10 to 100 nM and 141 µg/mL (≈ 182 µM).
Regarding `N#CC[C@H]1CN(c2nc(OC[C@@]34CCCN3C[C@H](F)C4)nc3c(F)c(-c4cccc(Cl)c4C(F)(F)F)ncc23)CCN1C(=O)/C=C/CN1CC[C@H](F)C1` [Compound 310], the logD in series [1] was 3.13. Further, the IC50 in series [2] was in the range of 10 to 100 nM. Moreover, in series [3], the solubility kinetic at 2 h was found to be 123 µg/mL (≈ 161 µM).
Consider `CN1CC[C@@H]1/C=C/C(=O)N1CCN(c2nc(OC[C@@]34CCCN3C[C@H](F)C4)nc3c(F)c(-c4cccc(Cl)c4C(F)(F)F)ncc23)C[C@@H]1CC#N` [Compound 311], for which the logD in series [1] turned out to be 2.54. The IC50 in series [2] lay in the range of 100 to 500 nM. Moreover, the solubility kinetic at 2 h in series [3] worked out at 128 µg/mL (≈ 175 µM).
As to `N#CC[C@H]1CN(c2nc(OC[C@@]34CCCN3C[C@H](F)C4)nc3c(F)c(-c4cccc(Cl)c4C4CC4)ncc23)CCN1C(=O)/C=C/[C@H]1CCN1C1CC1` [Compound 314], the logD in series [1] worked out at 4.05. Further, in series [2], the IC50 is < 10 nM. In series [3], the solubility kinetic at 2 h was 32.3 µg/mL (≈ 44.2 µM).
The corresponding values for `N#CC[C@H]1CN(c2nc(OC[C@@]34CCCN3C[C@H](O)C4)nc3c2CCN(c2cccc4cccc(Cl)c24)C3)CCN1C(=O)/C=C/CN1CCOCC1` [Compound 316] are 2.66, < 10 nM and 124 µg/mL (≈ 170 µM).

The record behind these values is patent publication US20250129103A1, “METHODS FOR TREATMENT OF CANCER” (Frontier Medicines Corporation, priority 2022, published 2025).
